Legend:
Format in all cases: in vivo
[1] = system: Diabrotica balteata; test: Diabrotica balteata (corn root worm) larval test on artificial diet; details: 120 h, 200 ppm (concentration in well 18 ppm), L2 larvae, larval mortality and growth regulation after 5 days
Procedure: A 24-well microtiter plate (MTP) with artificial diet was treated with test solutions at an application rate of 200 ppm (concentration in well 18 ppm) by pipetting. After drying, the MTP's were infested with larvae (L2) (6-10 per well). After an incubation period of 5 days, samples were checked for larval mortality, and growth regulation.

[2] = system: Heliothis virescens; test: Heliothis virescens (tobacco budworm) egg test on artificial diet; details: 96 h, 200 ppm (concentration in well 18 ppm), eggs 0-24 h old on artificial diet, egg mortality, larval mortality and growth regulation after 4 days
Procedure: Eggs (0-24 h old) were placed in 24-well microtiter plate on artificial diet and treated with test solutions at an application rate of 200 ppm (concentration in well 18 ppm) by pipetting. After an incubation period of 4 days, samples were checked for egg mortality, larval mortality, and growth regulation.

[3] = system: Spodoptera littoralis; test: Spodoptera littoralis (Egyptian cotton leafworm) leaf disc spray test; details: foliar, 72 h, 200 ppm sprayed on cotton leaf discs, 5 L1 larvae, mortality, feeding behavior and growth regulation 3 days after treatment
Text: Spodoptera littoralis (Egyptian Cotton Leafworm)
Cotton leaf discs were placed on agar in a 24-well microtiter plate and sprayed with test solutions at an application rate of 200 ppm. After drying, the leaf discs were infested with 5 L1 larvae. The samples were checked for mortality, feeding behavior, and growth regulation 3 days after treatment (DAT).

[4] = system: Plutella xylostella; test: Plutella xylostella (diamond back moth) larval test on artificial diet; details: 144 h, 200 ppm (concentration in well 18 ppm), L2 larvae, larval mortality and growth regulation after 6 days
Procedure: 24-well microtiter plate (MTP) with artificial diet was treated with test solutions at an application rate of 200 ppm (concentration in well 18 ppm) by pipetting. After drying, the MTP's were infested with L2 larvae (7-12 per well). After an incubation period of 6 days, samples were checked for larval mortality and growth regulation.

Measured: pest or weed control at 200 ppm

O=C(Nc1ccc(C(F)(F)F)cc1C1CCN(Cc2ccc(-c3ncc(F)cn3)cc2)CC1)c1ccnc(Cl)c1 [Compound A2, 2-chloro-N-(2-{1-[4-(5-fluoro-pyrimidin-2-yl)-benzyl]-piperidin-4-yl}-4-trifluoromethyl-phenyl)-isonicotinamide]
≥ 80%: all assays above

O=C(Nc1ccc(F)cc1C1CCN(Cc2ccc(-c3ncc(Cl)cn3)cc2)CC1)c1ccnc(Cl)c1 [Compound A10, 2-chloro-N-(2-{1-[4-(5-chloro-pyrimidin-2-yl)-benzyl]-piperidin-4-yl}-4-fluoro-phenyl)-isonicotinamide]
≥ 80%: all assays above

O=C(Nc1cc(OC(F)(F)F)ccc1C1CCN(Cc2ccc(-c3ncc(Cl)cn3)cc2)CC1)c1ccnc(Cl)c1 [Compound A12, 2-chloro-N-(2-{1-[4-(5-chloro-pyrimidin-2-yl)-benzyl]-piperidin-4-yl}-5-trifluoromethoxy-phenyl)-isonicotinamide]
≥ 80%: all assays above

O=C(Nc1ccc(C(F)(F)F)nc1C1CCN(Cc2ccc(-c3ncc(Cl)cn3)cc2)CC1)c1ccnc(Cl)c1 [Compound B1, 2-chloro-N-{1′-[4-(5-chloro-pyrimidin-2-yl)-benzyl]-6-trifluoromethyl-1′,2′,3′,4′,5′,6′-hexahydro-[2,4′]bipyridinyl-3-yl}-isonicotinamide]
≥ 80%: all assays above

O=C(Nc1ccc(C(F)(F)F)nc1C1CCN(Cc2ccc(-c3ncc(F)cn3)cc2)CC1)c1ccnc(Cl)c1 [Compound B2, 2-chloro-N-{1′-[4-(5-fluoro-pyrimidin-2-yl)-benzyl]-6-trifluoromethyl-1′,2′,3′,4′,5′,6′-hexahydro-[2,4′]bipyridinyl-3-yl}-isonicotinamide]
≥ 80%: all assays above

O=C(Nc1ccc(OC(F)F)nc1C1CCN(Cc2ccc(-c3ncc(Cl)cn3)cc2)CC1)c1ccnc(Cl)c1 [Compound B6, 2-chloro-N-{1′-[4-(5-chloro-pyrimidin-2-yl)-benzyl]-6-difluoromethoxy-1′,2′,3′,4′,5′,6′-hexahydro-[2,4′]bipyridinyl-3-yl}-isonicotinamide]
≥ 80%: all assays above

O=C(Nc1c(F)cc(C(F)(F)F)nc1C1CCN(Cc2ccc(-c3ncc(Cl)cn3)cc2)CC1)c1ccnc(Cl)c1 [Compound B7, 2-chloro-N-{1′-[4-(5-chloro-pyrimidin-2-yl)-benzyl]-4-fluoro-6-trifluoromethyl-1′,2′,3′,4′,5′,6′-hexahydro-[2,4′]bipyridinyl-3-yl}-isonicotinamide]
≥ 80%: all assays above

O=C(Nc1ccc(C(F)(F)F)cc1C1CC[N+]([O-])(Cc2ccc(-c3ncc(Cl)cn3)cc2)CC1)c1ccnc(Cl)c1 (stereo not drawn) [Compound C1, 2-chloro-N-(2-{1-[4-(5-chloro-pyrimidin-2-yl)-benzyl]-1-oxy-piperidin-4-yl}-4-trifluoromethyl-phenyl)-isonicotinamide]
≥ 80%: all assays above

O=C(Nc1ccc(C(F)(F)F)cc1C1CCN(Cc2ccc(-c3ncc(Cl)cn3)cc2)CC1)c1ccnc(Cl)c1 [Compound E1, 2-chloro-N-(2-{1-[4-(5-chloro-pyrimidin-2-yl)-benzyl]-piperidin-4-yl}-4-trifluoromethyl-phenyl)-isonicotinamide acetate]
≥ 80%: [4]

O=C(Nc1ccc(C(F)(F)F)cc1C1CCN(Cc2ccc(-c3ncc(Cl)cn3)cc2)CC1)c1ccnc(Cl)c1 [Compound E8]
≥ 80%: [1] | [2] | [3]
